This is an account of results in paper PMC10885153, “Membrane Permeability in a Large Macrocyclic Peptide Driven by a Saddle-Shaped Conformation” (Journal of the American Chemical Society, 2024).

The Papp is the rate of passage across a membrane or cell layer, normalised by area and donor concentration. Low values mean poor permeation, high ones ready permeation.

SMILES strings stand for the structures. Positions of bridges follow the written chain, without caps; N, C: chain ends. Non-standard residues stand in square brackets, D forms with d. Residues, ends and D or L forms follow the SMILES beside them. NMeC = CN[C@@H](CS)C(=O)O; NMeA = CN[C@@H](C)C(=O)O; dAbu = CC[C@@H](N)C(=O)O; dNMeA = CN[C@H](C)C(=O)O; Abu = CC[C@H](N)C(=O)O; Nleu = CC(C)CNCC(=O)O; NEtG = CCNCC(=O)O

The data set is described as follows: in vitro. The note with it: PAMPA, pH 7.4, PAMPA Pe_avg.
Experimental: Passive permeabilities of the 36 compounds were measured in multiplex as mixtures of six compounds each using the parallel artificial membrane permeability assay (PAMPA).[44]−[46]
Protocol is identical for both mixture and pure compound analysis.
Two of the following: Carbamazepine (CBZ), propranolol (Prop), and 1NMe35 were
included as internal standards and prepared as DMSO stocks at a concentration of 2 000 µM.
assay was carried out with a 96-well donor plate with 0.45 μ hydrophobic Immobilon-P membrane supports
(Millipore MAIPNTR10) and a 96-well Teflon acceptor plate (Millipore MSSACCEPTOR).
protocol then proceeded as follows:
Donor well solutions were prepared to a volume of 1 000 µL with the analytes as a solution in 1X
PBS pH 7.4 and 5% DMSO. To a 3 mL Eppendorf tube was added 950 µL of 1X PBS pH 7.4, 40
The solutions were vortexed and set aside.
Analyte – 10 µM per compound
A 1% solution of soy lecithin in dodecane was freshly prepared in a 3 mL Eppendorf tube and
sonicated (5 min) to ensure full dissolution of the lecithin. The donor membrane plate was turned
upside down and bottom of the membranes exposed. 5 µL of the 1% soy lecithin solution in
dodecane was then placed on the bottom of the membrane, allowing the drop to spread across the
full area of the membrane. Any membranes with visible damage were not used in the assay.
membranes were allowed to equilibrate for 5 min before loading.
Each well within the Teflon block acceptor plate that was to be used in the assay was then loaded
with 300 µL of 1X PBS pH 7.4 and 5% DMSO.
Working without break, 150 µL of each donor well solution was transferred from the to the 96-well
donor plate. Each mixture of interest was r un in quadruplicate, using a new well for each replicate.
As soon as the 96-well donor plate was finished being loaded, it was gently placed into the 96-well
Teflon acceptor plate, taking care not to trap any air bubbles beneath the membrane.
The donor/acceptor plates were covered gently with the lid to minimize evaporation and transferred
gently as a system to a sealed chamber and left to sit overnight at room temperature. The chamber
was kept from drying by placing a wet paper towel within to prevent evaporation.
After ~19-20 hours the donor plate was removed from the acceptor plate.
50 µL of each well (donor and acceptor) were transferred to a 96 -well plate and diluted with 50 µL
of methanol prior to heat sealing and quantification by UPLC -MS.
Molecule `CCOC(=O)[C@@H]1CSCC(=O)N[C@H](CC)C(=O)N(C)[C@@H](C)C(=O)N[C@H](CC(C)C)C(=O)N2CCC[C@@H]2C(=O)N(CC)CC(=O)N[C@H](CC(C)C)C(=O)N(C)[C@H](C)C(=O)N[C@@H](CC(C)C)C(=O)N1C` [JF206_ADD_DDDD_Ethyl] ({CH2CO}-[dAbu][NMeA][dL][dP][NEtG][dL][dNMeA]L[NMeC]-OEt; thioether N-9) had a Papp at 10 µM of 0.16 ×10⁻⁶ cm/s. The result for `CCOC(=O)[C@@H]1CSCC(=O)N[C@H](CC)C(=O)N(C)[C@@H](C)C(=O)N[C@H](CC(C)C)C(=O)N2CCC[C@@H]2C(=O)N(CC)CC(=O)N[C@H](CC(C)C)C(=O)N(C)[C@@H](C)C(=O)N[C@@H](CC(C)C)C(=O)N1C` [JF206_ADD_DDDL_Ethyl] ({CH2CO}-[dAbu][NMeA][dL][dP][NEtG][dL][NMeA]L[NMeC]-OEt; thioether N-9) reads 0.162 ×10⁻⁶ cm/s; that for `CCOC(=O)[C@@H]1CSCC(=O)N[C@H](CC)C(=O)N(C)[C@@H](C)C(=O)N[C@H](CC(C)C)C(=O)N2CCC[C@@H]2C(=O)N(CC)CC(=O)N[C@@H](CC(C)C)C(=O)N(C)[C@H](C)C(=O)N[C@@H](CC(C)C)C(=O)N1C` [JF206_ADD_DDLD_Ethyl] ({CH2CO}-[dAbu][NMeA][dL][dP][NEtG]L[dNMeA]L[NMeC]-OEt; thioether N-9), 0.005 ×10⁻⁶ cm/s. As for `CCOC(=O)[C@@H]1CSCC(=O)N[C@H](CC)C(=O)N(C)[C@@H](C)C(=O)N[C@H](CC(C)C)C(=O)N2CCC[C@@H]2C(=O)N(CC(C)C)CC(=O)N[C@@H](CC(C)C)C(=O)N(C)[C@H](C)C(=O)N[C@@H](CC(C)C)C(=O)N1C` [JF206_ADD_DDLD_Isobutyl] ({CH2CO}-[dAbu][NMeA][dL][dP][Nleu]L[dNMeA]L[NMeC]-OEt; thioether N-9), the figure is 0.125 ×10⁻⁶ cm/s; as for `CCOC(=O)[C@@H]1CSCC(=O)N[C@H](CC)C(=O)N(C)[C@@H](C)C(=O)N[C@@H](CC(C)C)C(=O)N2CCC[C@@H]2C(=O)N(CC(C)C)CC(=O)N[C@H](CC(C)C)C(=O)N(C)[C@H](C)C(=O)N[C@@H](CC(C)C)C(=O)N1C` [JF206_ADD_DLDD_Isobutyl] ({CH2CO}-[dAbu][NMeA]L[dP][Nleu][dL][dNMeA]L[NMeC]-OEt; thioether N-9), 0.118 ×10⁻⁶ cm/s; as for `CCOC(=O)[C@@H]1CSCC(=O)N[C@H](CC)C(=O)N(C)[C@@H](C)C(=O)N[C@@H](CC(C)C)C(=O)N2CCC[C@@H]2C(=O)N(CC)CC(=O)N[C@H](CC(C)C)C(=O)N(C)[C@@H](C)C(=O)N[C@@H](CC(C)C)C(=O)N1C` [JF206_ADD_DLDL_Ethyl] ({CH2CO}-[dAbu][NMeA]L[dP][NEtG][dL][NMeA]L[NMeC]-OEt; thioether N-9), 0.003 ×10⁻⁶ cm/s. The result for `CCOC(=O)[C@@H]1CSCC(=O)N[C@H](CC)C(=O)N(C)[C@@H](C)C(=O)N[C@@H](CC(C)C)C(=O)N2CCC[C@@H]2C(=O)N(CC(C)C)CC(=O)N[C@H](CC(C)C)C(=O)N(C)[C@@H](C)C(=O)N[C@@H](CC(C)C)C(=O)N1C` [JF206_ADD_DLDL_Isobutyl] ({CH2CO}-[dAbu][NMeA]L[dP][Nleu][dL][NMeA]L[NMeC]-OEt; thioether N-9) reads 0.173 ×10⁻⁶ cm/s; that for `CCOC(=O)[C@@H]1CSCC(=O)N[C@H](CC)C(=O)N(C)[C@@H](C)C(=O)N[C@@H](CC(C)C)C(=O)N2CCC[C@@H]2C(=O)N(CC)CC(=O)N[C@@H](CC(C)C)C(=O)N(C)[C@H](C)C(=O)N[C@@H](CC(C)C)C(=O)N1C` [JF206_ADD_DLLD_Ethyl] ({CH2CO}-[dAbu][NMeA]L[dP][NEtG]L[dNMeA]L[NMeC]-OEt; thioether N-9), 0.174 ×10⁻⁶ cm/s.

On to `CCOC(=O)[C@@H]1CSCC(=O)N[C@H](CC)C(=O)N(C)[C@@H](C)C(=O)N[C@@H](CC(C)C)C(=O)N2CCC[C@@H]2C(=O)N(CC)CC(=O)N[C@@H](CC(C)C)C(=O)N(C)[C@@H](C)C(=O)N[C@@H](CC(C)C)C(=O)N1C` [JF206_ADD_DLLL_Ethyl] ({CH2CO}-[dAbu][NMeA]L[dP][NEtG]L[NMeA]L[NMeC]-OEt; thioether N-9), for which the Papp at 10 µM was found to be 0.561 ×10⁻⁶ cm/s. The molecule `CCOC(=O)[C@@H]1CSCC(=O)N[C@H](CC)C(=O)N(C)[C@@H](C)C(=O)N[C@@H](CC(C)C)C(=O)N2CCC[C@@H]2C(=O)N(CC(C)C)CC(=O)N[C@@H](CC(C)C)C(=O)N(C)[C@@H](C)C(=O)N[C@@H](CC(C)C)C(=O)N1C` [JF206_ADD_DLLL_Isobutyl] ({CH2CO}-[dAbu][NMeA]L[dP][Nleu]L[NMeA]L[NMeC]-OEt; thioether N-9) showed a Papp at 10 µM of 0.688 ×10⁻⁶ cm/s.

In the case of `CCOC(=O)[C@@H]1CSCC(=O)N[C@@H](CC)C(=O)N(C)[C@@H](C)C(=O)N[C@H](CC(C)C)C(=O)N2CCC[C@@H]2C(=O)N(CC)CC(=O)N[C@H](CC(C)C)C(=O)N(C)[C@H](C)C(=O)N[C@@H](CC(C)C)C(=O)N1C` [JF206_ADL_LDDD_Ethyl] ({CH2CO}-[Abu][NMeA][dL][dP][NEtG][dL][dNMeA]L[NMeC]-OEt; thioether N-9), the apparent permeability (Papp) at 10 µM amounted to 0.177 ×10⁻⁶ cm/s.

Turning to `CCOC(=O)[C@@H]1CSCC(=O)N[C@@H](CC)C(=O)N(C)[C@@H](C)C(=O)N[C@H](CC(C)C)C(=O)N2CCC[C@@H]2C(=O)N(CC)CC(=O)N[C@H](CC(C)C)C(=O)N(C)[C@@H](C)C(=O)N[C@@H](CC(C)C)C(=O)N1C` [JF206_ADL_LDDL_Ethyl] ({CH2CO}-[Abu][NMeA][dL][dP][NEtG][dL][NMeA]L[NMeC]-OEt; thioether N-9), the Papp at 10 µM stood at 0.315 ×10⁻⁶ cm/s. Compared with the last molecule, the Papp at 10 µM is about 1.8-fold higher. As for `CCOC(=O)[C@@H]1CSCC(=O)N[C@@H](CC)C(=O)N(C)[C@@H](C)C(=O)N[C@H](CC(C)C)C(=O)N2CCC[C@@H]2C(=O)N(CC)CC(=O)N[C@@H](CC(C)C)C(=O)N(C)[C@@H](C)C(=O)N[C@@H](CC(C)C)C(=O)N1C` [JF206_ADL_LDLL_Ethyl] ({CH2CO}-[Abu][NMeA][dL][dP][NEtG]L[NMeA]L[NMeC]-OEt; thioether N-9), the figure is 0.013 ×10⁻⁶ cm/s; as for `CCOC(=O)[C@@H]1CSCC(=O)N[C@@H](CC)C(=O)N(C)[C@@H](C)C(=O)N[C@@H](CC(C)C)C(=O)N2CCC[C@@H]2C(=O)N(CC)CC(=O)N[C@H](CC(C)C)C(=O)N(C)[C@H](C)C(=O)N[C@@H](CC(C)C)C(=O)N1C` [JF206_ADL_LLDD_Ethyl] ({CH2CO}-[Abu][NMeA]L[dP][NEtG][dL][dNMeA]L[NMeC]-OEt; thioether N-9), 0.018 ×10⁻⁶ cm/s; as for `CCOC(=O)[C@@H]1CSCC(=O)N[C@@H](CC)C(=O)N(C)[C@@H](C)C(=O)N[C@@H](CC(C)C)C(=O)N2CCC[C@@H]2C(=O)N(CC(C)C)CC(=O)N[C@H](CC(C)C)C(=O)N(C)[C@H](C)C(=O)N[C@@H](CC(C)C)C(=O)N1C` [JF206_ADL_LLDD_Isobutyl] ({CH2CO}-[Abu][NMeA]L[dP][Nleu][dL][dNMeA]L[NMeC]-OEt; thioether N-9), 0.286 ×10⁻⁶ cm/s. The result for `CCOC(=O)[C@@H]1CSCC(=O)N[C@@H](CC)C(=O)N(C)[C@@H](C)C(=O)N[C@@H](CC(C)C)C(=O)N2CCC[C@@H]2C(=O)N(CC)CC(=O)N[C@H](CC(C)C)C(=O)N(C)[C@@H](C)C(=O)N[C@@H](CC(C)C)C(=O)N1C` [JF206_ADL_LLDL_Ethyl] ({CH2CO}-[Abu][NMeA]L[dP][NEtG][dL][NMeA]L[NMeC]-OEt; thioether N-9) reads 0.011 ×10⁻⁶ cm/s; that for `CCOC(=O)[C@@H]1CSCC(=O)N[C@@H](CC)C(=O)N(C)[C@@H](C)C(=O)N[C@@H](CC(C)C)C(=O)N2CCC[C@@H]2C(=O)N(CC(C)C)CC(=O)N[C@H](CC(C)C)C(=O)N(C)[C@@H](C)C(=O)N[C@@H](CC(C)C)C(=O)N1C` [JF206_ADL_LLDL_Isobutyl] ({CH2CO}-[Abu][NMeA]L[dP][Nleu][dL][NMeA]L[NMeC]-OEt; thioether N-9), 0.229 ×10⁻⁶ cm/s; that for `CCOC(=O)[C@@H]1CSCC(=O)N[C@@H](CC)C(=O)N(C)[C@@H](C)C(=O)N[C@@H](CC(C)C)C(=O)N2CCC[C@@H]2C(=O)N(CC)CC(=O)N[C@@H](CC(C)C)C(=O)N(C)[C@H](C)C(=O)N[C@@H](CC(C)C)C(=O)N1C` [JF206_ADL_LLLD_Ethyl] ({CH2CO}-[Abu][NMeA]L[dP][NEtG]L[dNMeA]L[NMeC]-OEt; thioether N-9), 0.326 ×10⁻⁶ cm/s. As for `CCOC(=O)[C@@H]1CSCC(=O)N[C@H](CC)C(=O)N(C)[C@@H](C)C(=O)N[C@H](CC(C)C)C(=O)N2CCC[C@H]2C(=O)N(CC)CC(=O)N[C@H](CC(C)C)C(=O)N(C)[C@H](C)C(=O)N[C@@H](CC(C)C)C(=O)N1C` [JF206_ALD_DDDD_Ethyl] ({CH2CO}-[dAbu][NMeA][dL]P[NEtG][dL][dNMeA]L[NMeC]-OEt; thioether N-9), the figure is 0.194 ×10⁻⁶ cm/s; as for `CCOC(=O)[C@@H]1CSCC(=O)N[C@H](CC)C(=O)N(C)[C@@H](C)C(=O)N[C@H](CC(C)C)C(=O)N2CCC[C@H]2C(=O)N(CC)CC(=O)N[C@H](CC(C)C)C(=O)N(C)[C@@H](C)C(=O)N[C@@H](CC(C)C)C(=O)N1C` [JF206_ALD_DDDL_Ethyl] ({CH2CO}-[dAbu][NMeA][dL]P[NEtG][dL][NMeA]L[NMeC]-OEt; thioether N-9), 0.18 ×10⁻⁶ cm/s. Molecule `CCOC(=O)[C@@H]1CSCC(=O)N[C@H](CC)C(=O)N(C)[C@@H](C)C(=O)N[C@H](CC(C)C)C(=O)N2CCC[C@H]2C(=O)N(CC(C)C)CC(=O)N[C@H](CC(C)C)C(=O)N(C)[C@@H](C)C(=O)N[C@@H](CC(C)C)C(=O)N1C` [JF206_ALD_DDDL_Isobutyl] ({CH2CO}-[dAbu][NMeA][dL]P[Nleu][dL][NMeA]L[NMeC]-OEt; thioether N-9) had an apparent permeability (Papp) at 10 µM of 0.556 ×10⁻⁶ cm/s.

The molecule `CCOC(=O)[C@@H]1CSCC(=O)N[C@H](CC)C(=O)N(C)[C@@H](C)C(=O)N[C@H](CC(C)C)C(=O)N2CCC[C@H]2C(=O)N(CC)CC(=O)N[C@@H](CC(C)C)C(=O)N(C)[C@H](C)C(=O)N[C@@H](CC(C)C)C(=O)N1C` [JF206_ALD_DDLD_Ethyl] ({CH2CO}-[dAbu][NMeA][dL]P[NEtG]L[dNMeA]L[NMeC]-OEt; thioether N-9) returned a Papp at 10 µM of 0.007 ×10⁻⁶ cm/s.

Molecule `CCOC(=O)[C@@H]1CSCC(=O)N[C@H](CC)C(=O)N(C)[C@@H](C)C(=O)N[C@H](CC(C)C)C(=O)N2CCC[C@H]2C(=O)N(CC(C)C)CC(=O)N[C@@H](CC(C)C)C(=O)N(C)[C@H](C)C(=O)N[C@@H](CC(C)C)C(=O)N1C` [JF206_ALD_DDLD_Isobutyl] ({CH2CO}-[dAbu][NMeA][dL]P[Nleu]L[dNMeA]L[NMeC]-OEt; thioether N-9) displayed an apparent permeability (Papp) at 10 µM of 0.063 ×10⁻⁶ cm/s.
